Patent publication US6630499B1, “Control of arthropods in animals” (Aventis CropScience, S.A., priority 1998, dated 2003)

What was measured:
Type in all cases: in vivo
[1] = tested on: cat fleas (Ctenocephalides felis); experiment: Control of cat fleas on treated dogs (Biological Examples 1-3); conditions: dogs, 10 mg/kg, 30 mg/mL in 1:1 dimethyl sulfoxide/corn oil, 1 day post-treatment, versus placebo group
Experimental: (§1) All dogs were infested with cat fleas (Ctenocephalides felis) and with ticks (Rhipicephalus sanguineus) 1 day prior to administration of the compound. Cats were only infested with fleas. The initial flea and tick counts were performed 1 day after the administration of the compounds. At 7, 14, 21 and 28 days after treatment the dogs were re-infested with ticks and 8, 15, 22 and 29 days after treatment the dogs and cats were re-infested with fleas. At 1, 9, 16, 23 and 30 days after treatment the control of fleas and ticks in treated dogs and cats was determined versus a group of infested dogs and cats which received a placebo consisting of a 1:1 volume/volume solution of dimethyl sulfoxide and corn oil. To determine the efficacies of the compounds, the arthropods were combed from the animals and counted.
(§2) The compounds listed below were formulated and tested as described in Biological Example 1, again at the dosage level of active ingredient of 10 mg/kg in dogs and 20 mg/kg in cats. Results at 1 DPT (day post-treatment) are tabulated below, where the compound numbers are the same as those listed in Tables 1, 2, 4, 5, 6, 7, 8, 9, 10, 11, 12 and 13 hereinabove.
(§3) Testing was carried out as described in Biological Example 1. […] The Huang et al compound was deemed to have insufficient activity to be tested in cats.

[2] = tested on: ticks (Rhipicephalus sanguineus); experiment: Control of ticks on treated dogs (Biological Examples 1-3); conditions: dogs, 10 mg/kg, 30 mg/mL in 1:1 dimethyl sulfoxide/corn oil, 1 day post-treatment, versus placebo group
Experimental: as §1, §2, §3

[3] = tested on: cat fleas (Ctenocephalides felis); experiment: Control of cat fleas on treated cats (Biological Examples 1-3); conditions: cats, 20 mg/kg, 30 mg/mL in 1:1 dimethyl sulfoxide/corn oil, 1 day post-treatment, versus placebo group
Experimental: as §1, §2, §3

Emesis in treated dogs = conditions: dogs, 10 mg/kg
Experimental: (§4) By the term “emesis” is meant vomiting. Generally an emetic substance elicits emesis in less than 24 hours after administration, usually less than 8 hours, more usually less than 2 hours. By the term “substantially non-emetic” is meant that, generally, when a compound or composition of the invention is administered to a population of animals, more than 70% (or at least ⅔) of the animals are free of emesis. Preferably, more than 80%, most preferably more than 90%, of said population is free of emesis.
(§5) In the animals treated with the compounds above, there was substantially no emesis after 2, 8 and 24 hours. Generally long-term control of fleas and ticks was provided in dogs. In the cats treated, there was commercially acceptable control of fleas for at least one day post treatment.
as §2

Emesis in treated cats = conditions: cats, 20 mg/kg
Experimental: as §4, §5, §2

Row | SMILES | % Control 1 DPT (Fleas/Ticks): Fleas [1] | % Control 1 DPT (Fleas/Ticks): Ticks [2] | % Control 1 DPT (Fleas) [3] [%] | % Emesis (Emesis in treated dogs) [%] | % Emesis (Emesis in treated cats) [%]
1 | CCOC(C)C(=O)N(C)c1c(SC(F)(F)F)c(C#N)nn1-c1c(Cl)cc(C(F)(F)F)cc1Cl (racemic) [Compound 116-1] | 79% | 100% | 100 | 0 | 0
2 | N#Cc1nn(-c2c(Cl)cc(C(F)(F)F)cc2Cl)c(N=CNCC(F)(F)F)c1S(=O)(=O)C(F)(F)F [Compound 230] | 100% | 80% | 98 | 0 | 0
3 | CN(C(=O)c1ccco1)c1c(SC(F)(F)F)c(C#N)nn1-c1c(Cl)cc(C(F)(F)F)cc1Cl [Compound 130-1] | 100/100% | 100/100% | 93 | 0 | 25
4 | N#Cc1nn(-c2c(Cl)cc(C(F)(F)F)cc2Cl)c(N(CC2CC2)C(=O)C2CCCO2)c1S(=O)(=O)C(F)(F)F (racemic) [Compound 7-11] | 100/100% | 100/100% | 100 | 0 | 0
5 | CCCN(C(=O)OC(C)C)c1c(SC(F)(F)F)c(C#N)nn1-c1c(Cl)cc(C(F)(F)F)cc1Cl [Compound 77-1] | 98% | 10% | 99 | 0 | 0
6 | CN(C)C=Nc1c(SC(F)(F)F)c(C#N)nn1-c1c(Cl)cc(C(F)(F)F)cc1Cl [Compound 219, 3-cyano-1-(2,6-dichloro-4-trifluoromethylphenyl)-5-N′-dimethylaminomethylideneamino-4-trifluoromethylthiopyrazole] | 97% | 80% | 100 | 33 | 25
7 | CCCOC(=O)N(CC)c1c(SC(F)(F)F)c(C#N)nn1-c1c(Cl)cc(C(F)(F)F)cc1Cl [Compound 74-1] | 99% | 87% | 100 | 0 | 0
8 | CCOCC(=O)N(C)c1c(SC(F)(F)F)c(C#N)nn1-c1c(Cl)cc(C(F)(F)F)cc1Cl [Compound 3-1] | 100% | 96% | 100 | 0 | 0
9 | CC(=O)N(C)c1c(S(=O)(=O)C(F)(F)F)c(C#N)nn1-c1c(Cl)cc(C(F)(F)F)cc1Cl [Compound 1-5] | 98% | 84% | 0 | 0 | 33
10 | COCCOCC(=O)N(C)c1c(S(=O)(=O)C(F)(F)F)c(C#N)nn1-c1c(Cl)cc(C(F)(F)F)cc1Cl [Compound 120-1] | 97% | 78% | 100 | 0 | 0
11 | CCC(=O)N(C)c1c(SC(F)(F)F)c(C#N)nn1-c1c(Cl)cc(C(F)(F)F)cc1Cl [Compound 123-1] | 74% | 0% | 100 | 0 | 25
12 | COCC(=O)N(C)c1c(S(=O)(=O)C(F)(F)F)c(C#N)nn1-c1c(Cl)cc(C(F)(F)F)cc1Cl [Compound 2-5] | 100% | 95% | 100 | 33 | 0
13 | COC(=O)N(C)c1c(SC(F)(F)F)c(C#N)nn1-c1c(Cl)cc(C(F)(F)F)cc1Cl [Compound 67-1] | 100/100% | 100/100% | 53 | 33 | 0
14 | CC(=O)O.N#Cc1nn(-c2c(Cl)cc(C(F)(F)F)cc2Cl)c(N=CNCC(F)(F)F)c1SC(F)(F)F [Compound 232] | 99% | 35% | 100 | 0 | 0
